{"source": "patent US12202835B2", "about": "“Substituted aromatic ring-linked dioxinoquinazolines and dioxinoquinolines as kinase inhibitors” (BEIJING SCITECH-MQ PHARMACEUTICALS LIMITED, priority 2018, dated 2025)", "key": {"VEGFR-2 kinase": {"target": "VEGFR-2 kinase (Homo sapiens (Human), UniProt P35968)", "sequence (P35968 20-1356)": "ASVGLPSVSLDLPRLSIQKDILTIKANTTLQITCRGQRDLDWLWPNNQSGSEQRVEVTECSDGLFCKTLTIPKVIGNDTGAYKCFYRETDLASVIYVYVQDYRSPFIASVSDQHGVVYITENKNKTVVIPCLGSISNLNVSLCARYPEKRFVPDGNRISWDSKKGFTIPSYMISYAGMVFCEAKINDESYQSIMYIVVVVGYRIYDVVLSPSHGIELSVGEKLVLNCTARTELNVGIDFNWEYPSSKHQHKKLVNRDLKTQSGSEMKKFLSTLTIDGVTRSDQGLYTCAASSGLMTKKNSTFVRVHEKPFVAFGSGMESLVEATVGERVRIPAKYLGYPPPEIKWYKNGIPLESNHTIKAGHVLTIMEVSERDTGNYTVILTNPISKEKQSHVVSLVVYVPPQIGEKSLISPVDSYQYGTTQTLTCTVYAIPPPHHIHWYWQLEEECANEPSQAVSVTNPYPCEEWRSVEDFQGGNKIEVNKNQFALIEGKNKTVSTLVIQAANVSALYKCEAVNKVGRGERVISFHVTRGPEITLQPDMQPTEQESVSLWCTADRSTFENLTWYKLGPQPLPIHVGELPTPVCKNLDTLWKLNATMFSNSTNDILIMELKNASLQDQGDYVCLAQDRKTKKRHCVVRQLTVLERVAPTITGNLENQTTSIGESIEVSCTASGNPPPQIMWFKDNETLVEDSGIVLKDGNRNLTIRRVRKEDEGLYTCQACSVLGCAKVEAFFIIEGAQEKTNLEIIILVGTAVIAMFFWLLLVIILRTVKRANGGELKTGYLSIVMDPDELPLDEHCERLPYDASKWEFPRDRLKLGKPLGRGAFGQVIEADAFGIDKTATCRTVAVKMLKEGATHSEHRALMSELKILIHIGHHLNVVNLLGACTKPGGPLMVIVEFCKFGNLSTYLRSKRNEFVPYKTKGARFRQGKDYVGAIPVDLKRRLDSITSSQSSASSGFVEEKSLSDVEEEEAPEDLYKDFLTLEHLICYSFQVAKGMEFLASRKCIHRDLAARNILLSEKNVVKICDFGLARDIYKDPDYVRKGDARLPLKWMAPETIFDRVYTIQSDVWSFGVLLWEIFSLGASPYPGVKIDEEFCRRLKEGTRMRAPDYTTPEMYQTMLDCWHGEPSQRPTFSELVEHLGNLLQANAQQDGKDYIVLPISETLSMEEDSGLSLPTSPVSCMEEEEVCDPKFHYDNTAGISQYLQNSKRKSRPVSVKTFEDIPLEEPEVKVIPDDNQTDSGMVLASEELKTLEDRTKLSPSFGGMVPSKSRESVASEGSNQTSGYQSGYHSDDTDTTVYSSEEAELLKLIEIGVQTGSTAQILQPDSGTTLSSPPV", "test": "Assay of small molecular compounds for inhibiting the activity of VEGFR-2 kinase (LANCE TR-FRET)", "type": "biochemical", "conditions": "read-out: VEGFR2 IC50", "method_in_brief": "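LANCE TR-FRET with human VEGFR-2 (2× stock 0.5 nM) preincubated 30 min with compound (final 2500 to 0.042 nM, 11-point 3-fold), then ULight-JAK-1 (Tyr1023) peptide/ATP added (4× stocks 200 nM/40 μM). Reaction 60 min room temperature, 4% DMSO; IC50 from inhibition-rate curve.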"}, "MHCC97H cells": {"system": "MHCC97H cells", "test": "Assay for inhibiting the proliferation of MHCC97H cells (CCK-8)", "type": "cell-based", "conditions": "Homo sapiens", "method_in_brief": "(§1)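 Cells seeded in 96-well plates overnight, then exposed 72 h to 9 three-fold dilutions of compound (0.25% DMSO final). Viability by CCK-8 (1-2 h at 37° C., OD 450 nm), survival normalized to untreated and cell-free blanks; IC50 by curve fitting.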"}, "MER kinase": {"target": "MER kinase (Homo sapiens (Human), UniProt Q12866)", "sequence (Q12866 21-999)": "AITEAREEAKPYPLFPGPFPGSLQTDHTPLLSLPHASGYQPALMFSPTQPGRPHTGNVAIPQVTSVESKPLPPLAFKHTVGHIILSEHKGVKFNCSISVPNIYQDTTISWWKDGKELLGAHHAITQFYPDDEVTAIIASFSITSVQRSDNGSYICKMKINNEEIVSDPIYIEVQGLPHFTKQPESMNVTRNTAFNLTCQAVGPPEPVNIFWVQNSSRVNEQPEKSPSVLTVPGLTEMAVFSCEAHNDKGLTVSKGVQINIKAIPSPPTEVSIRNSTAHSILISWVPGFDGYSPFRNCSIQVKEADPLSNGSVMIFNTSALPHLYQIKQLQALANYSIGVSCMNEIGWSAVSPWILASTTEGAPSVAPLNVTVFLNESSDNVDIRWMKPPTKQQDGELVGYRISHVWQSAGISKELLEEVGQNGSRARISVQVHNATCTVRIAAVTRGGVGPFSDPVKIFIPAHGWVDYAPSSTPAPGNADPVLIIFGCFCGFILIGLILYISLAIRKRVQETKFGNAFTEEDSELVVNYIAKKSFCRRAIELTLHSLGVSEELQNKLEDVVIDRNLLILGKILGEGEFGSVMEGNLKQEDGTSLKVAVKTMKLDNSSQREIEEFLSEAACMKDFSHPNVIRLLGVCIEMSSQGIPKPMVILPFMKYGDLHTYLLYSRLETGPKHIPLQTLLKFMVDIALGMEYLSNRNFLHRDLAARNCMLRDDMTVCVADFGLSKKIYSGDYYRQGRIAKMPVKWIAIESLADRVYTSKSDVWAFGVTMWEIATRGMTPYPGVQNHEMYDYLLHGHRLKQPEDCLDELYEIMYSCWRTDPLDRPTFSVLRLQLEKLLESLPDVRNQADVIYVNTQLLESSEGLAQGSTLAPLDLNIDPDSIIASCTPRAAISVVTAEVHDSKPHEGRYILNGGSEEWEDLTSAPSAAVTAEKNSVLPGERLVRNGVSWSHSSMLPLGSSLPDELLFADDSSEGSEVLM", "test": "Assay of small molecular compounds for inhibiting the activity of MER kinase (LANCE TR-FRET)", "type": "biochemical", "method_in_brief": "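LANCE TR-FRET readout of ULight-poly GT phosphorylation by MER kinase; compound final range 0.042-2500 nM, 3-fold steps, 5 min enzyme preincubation. Reaction 60 min at room temperature in the dark with substrate/ATP (4× at 200 nM/20 μM), 1% DMSO, then stopped and developed 60 min; IC50 by curve fit.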"}, "[1]": {"system": "Ba/F3 LMNA-NTRK1-G595R cells", "test": "Assay for inhibiting the proliferation of Ba/F3 LMNA-NTRK1-G595R cells (CCK-8)", "type": "cell-based", "conditions": "Mus musculus, BaF3", "method_in_brief": "as §1"}}, "note": "pIC50: −log10 of the molar value."}
{"smiles": "CCn1cc(C(=O)Nc2ccc(Oc3ccnc4cc(OCCCN5CCCCC5)c5c(c34)OCCO5)c(F)c2)c(=O)n(-c2ccc(F)cc2)c1=O", "note": "[Example 41, N-(3-fluoro-4-((5-(3-(piperidin-1-yl)propoxy)-2,3-dihydro-[1,4]dioxino[2,3-f]quinolin-10-yl)oxy)phenyl)-3-(4-fluorophenyl)-1-ethyl-2,4-dioxo-1,2,3,4-tetrahydropyrimidine-5-carboxamide]", "values": [{"measurement": "pIC50", "setting": "VEGFR-2 kinase", "result": "6.30 to 7.30"}, {"measurement": "pIC50", "setting": "MHCC97H cells", "result": "6.70 to 7.30"}, {"measurement": "pIC50", "setting": "MER kinase", "result": "≥ 7.30"}, {"measurement": "pIC50", "setting": "[1]", "result": "6.70 to 7.30"}]}
{"smiles": "COCCOc1cc2nccc(Oc3ccc(NC(=O)c4cn(C)c(=O)n(-c5ccc(F)cc5)c4=O)cc3F)c2c2c1OCCO2", "note": "[Example 42, N-(3-fluoro-4-((5-(2-methoxyethoxy)-2,3-dihydro-[1,4]dioxino[2,3-f]quinolin-10-yl)oxy)phenyl)-3-(4-fluorophenyl)-1-methyl-2,4-dioxo-1,2,3,4-tetrahydropyrimidine-5-carboxamide]", "values": [{"measurement": "pIC50", "setting": "VEGFR-2 kinase", "result": "6.30 to 7.30"}, {"measurement": "pIC50", "setting": "MHCC97H cells", "result": "≥ 7.30"}, {"measurement": "pIC50", "setting": "MER kinase", "result": "≥ 7.30"}, {"measurement": "pIC50", "setting": "[1]", "result": "6.70 to 7.30"}]}
{"smiles": "Cn1cc(C(=O)Nc2ccc(Oc3ccnc4cc(OCCCN5CCCCC5)c5c(c34)OCCO5)c(F)c2)c(=O)n(-c2ccc(F)cc2)c1=O", "note": "[Example 39, N-(3-fluoro-4-((5-(3-(piperidin-1-yl)propoxy)-2,3-dihydro-[1,4]dioxino[2,3-f]quinolin-10-yl)oxy)phenyl)-3-(4-fluorophenyl)-1-methyl-2,4-dioxo-1,2,3,4-tetrahydropyrimidine-5-carboxamide]", "values": [{"measurement": "pIC50", "setting": "VEGFR-2 kinase", "result": "6.30 to 7.30"}, {"measurement": "pIC50", "setting": "MHCC97H cells", "result": "6.70 to 7.30"}, {"measurement": "pIC50", "setting": "MER kinase", "result": "≥ 7.30"}, {"measurement": "pIC50", "setting": "[1]", "result": "6.70 to 7.30"}]}
{"smiles": "COc1cc2nccc(Oc3cc(Cl)c(NC(=O)c4cn(C)c(=O)n(-c5ccc(F)cc5)c4=O)cc3F)c2c2c1OCCO2", "note": "[Example 116, N-(2-chloro-5-fluoro-4-((5-methoxy-2,3-dihydro-[1,4]dioxino[2,3-f]quinolin-10-yl)oxy)phenyl)-3-(4-fluorophenyl)-1-methyl-2,4-dioxo-1,2,3,4-tetrahydropyrimidine-5-carboxamide]", "values": [{"measurement": "pIC50", "setting": "VEGFR-2 kinase", "result": "< 5.30"}, {"measurement": "pIC50", "setting": "MHCC97H cells", "result": "6.70 to 7.30"}, {"measurement": "pIC50", "setting": "MER kinase", "result": "≥ 7.30"}, {"measurement": "pIC50", "setting": "[1]", "result": "≥ 7.30"}]}
{"smiles": "Cn1cc(C(=O)Nc2ccc(Oc3ccnc4cc(OCCCN5CCOCC5)c5c(c34)OCCO5)c(F)c2)c(=O)n(-c2ccc(F)cc2)c1=O", "note": "[Example 15, N-(3-fluoro-4-((5-(3-morpholinopropoxy)-2,3-dihydro-[1,4]dioxino[2,3-f]quinolin-10-yl)oxy)phenyl)-3-(4-fluorophenyl)-1-methyl-2,4-dioxo-1,2,3,4-tetrahydropyrimidine-5-carboxamide]", "values": [{"measurement": "pIC50", "setting": "VEGFR-2 kinase", "result": "6.30 to 7.30"}, {"measurement": "pIC50", "setting": "MHCC97H cells", "result": "≥ 7.30"}, {"measurement": "pIC50", "setting": "MER kinase", "result": "≥ 7.30"}, {"measurement": "pIC50", "setting": "[1]", "result": "6.70 to 7.30"}]}
{"smiles": "COCCOc1cc2nccc(Oc3cc(C)c(NC(=O)c4cn(C)c(=O)n(-c5ccc(F)cc5)c4=O)cc3F)c2c2c1OCCO2", "note": "[Example 179, N-(5-fluoro-4-((5-(2-methoxyethoxy)-2,3-dihydro-[1,4]dioxino[2,3-f]quinolin-10-yl)oxy)-2-methylphenyl)-3-(4-fluorophenyl)-1-methyl-2,4-dioxo-1,2,3,4-tetrahydropyrimidine-5-carboxamide]", "values": [{"measurement": "pIC50", "setting": "VEGFR-2 kinase", "result": "5.30 to 6.30"}, {"measurement": "pIC50", "setting": "MHCC97H cells", "result": "≥ 7.30"}, {"measurement": "pIC50", "setting": "MER kinase", "result": "≥ 7.30"}, {"measurement": "pIC50", "setting": "[1]", "result": "≥ 7.30"}]}
{"smiles": "COc1cc2nccc(Oc3cc(C)c(NC(=O)c4cn(C)c(=O)n(-c5ccc(F)cc5)c4=O)cc3F)c2c2c1OCCO2", "note": "[Example 177, N-(5-fluoro-4-((5-methoxy-2,3-dihydro-[1,4]dioxino[2,3-f]quinolin-10-yl)oxy)-2-methylphenyl)-3-(4-fluorophenyl)-1-methyl-2,4-dioxo-1,2,3,4-tetrahydropyrimidine-5-carboxamide]", "values": [{"measurement": "pIC50", "setting": "VEGFR-2 kinase", "result": "5.30 to 6.30"}, {"measurement": "pIC50", "setting": "MHCC97H cells", "result": "6.70 to 7.30"}, {"measurement": "pIC50", "setting": "MER kinase", "result": "≥ 7.30"}, {"measurement": "pIC50", "setting": "[1]", "result": "≥ 7.30"}]}
